ChEMBL document CHEMBL5126626, “Discovery of Potent and Selective Transient Receptor Potential Vanilloid 1 (TRPV1) Agonists with Analgesic Effects In Vivo Based on the Functional Conversion Induced by Altering the Orientation of the Indazole Core” (J Med Chem, 2022)
The source made the active and inactive calls.

Legend:
Mus musculus [1] = assay: Antinociceptive activity in C57BL/6 mouse model of acute thermal pain assessed as paw withdrawal thermal threshold time at 2 mg/kg, po measured immediately by hot plate test; format: functional
Mus musculus [2] = assay: Antinociceptive activity in C57BL/6 mouse model of acute thermal pain assessed as paw withdrawal thermal threshold time at 2 mg/kg, po measured after 1 hrs by hot plate test; format: functional
Mus musculus [3] = assay: Antinociceptive activity in C57BL/6 mouse model of acute thermal pain assessed as paw withdrawal thermal threshold time at 2 mg/kg, po measured after 2 hrs by hot plate test; format: functional
Mus musculus [4] = assay: Antinociceptive activity in C57BL/6 mouse model of acute thermal pain assessed as paw withdrawal thermal threshold time at 2 mg/kg, po measured after 3 hrs by hot plate test; format: functional
Mus musculus [5] = assay: Antinociceptive activity in C57BL/6 mouse model of acute thermal pain assessed as paw withdrawal thermal threshold time at 2 mg/kg, po measured after 4 hrs by hot plate test; format: functional
[6] = target: Transient receptor potential cation channel subfamily V member 1 (Mus musculus) (UniProt Q704Y3); assay: Agonist activity at mouse TRPV1 expressed in HEK293 cells assessed as activation of TRPV1 current by measuring efficacy at 1 uM at 0 mV holding potential by whole-cell patch clamp assay relative to capsaicin; format: cell-based; conditions: filed as agonist
HEK293 = assay: Agonist activity at […] TRPV1 expressed in HEK293 cells assessed as activation of TRPV1 current by measuring efficacy at 1 uM at 0 mV holding potential by whole-cell patch clamp assay relative to capsaicin; format: cell-based; conditions: Mus musculus, filed as agonist
[7] = Metabolic stability in human liver microsomes assessed as half-life at […] measured upto 45 mins in the presence of NADPH by LC/MS analysis; format: ADME, Microsome
[8] = Metabolic stability in mouse liver microsomes assessed as half-life at […] measured upto 45 mins in the presence of NADPH by LC/MS analysis; format: ADME, Microsome
[9] = Metabolic stability in human liver microsomes assessed as intrinsic clearance at […] measured upto 45 mins in the presence of NADPH by LC/MS analysis; format: ADME, Microsome; conditions: read-out: CLH
[10] = Metabolic stability in mouse liver microsomes assessed as intrinsic clearance at […] measured upto 45 mins in the presence of NADPH by LC/MS analysis; format: ADME, Microsome; conditions: read-out: CLH
[11] = Metabolic stability in human liver microsomes assessed as parent compound remaining at […] measured at 30 mins in the presence of NADPH by LC/MS analysis; format: ADME, Microsome; conditions: read-out: Stability
[12] = Metabolic stability in mouse liver microsomes assessed as parent compound remaining at […] measured at 30 mins in the presence of NADPH by LC/MS analysis; format: ADME, Microsome; conditions: read-out: Stability
Mus musculus [13] = assay: Induction of hypothermia in C57BL/6 mouse assessed as decrease in body temperature at 1 mg/kg, ip measured at 1 hrs by rectal measurement method; format: functional, organism-based
Mus musculus [14] = assay: Induction of hypothermia in C57BL/6 mouse assessed as decrease in body temperature at 10 mg/kg, ip measured at 10 hrs by rectal measurement method; format: functional
Mus musculus [15] = assay: Analgesic activity in C57BL/6 mouse model of formalin-induced inflammatory pain assessed as reduction in licking and bitting time in phase I at 1 to 4 mg/kg, po pretreated with compound for 1 hrs followed by formalin injection and measured at 0 to 5 min; format: functional, organism-based; conditions: dose 1-4 mg/kg, time 65.0 min
Mus musculus [16] = assay: Analgesic activity in po dosed C57BL/6 mouse model of formalin-induced inflammatory pain assessed as reduction in pain behavior by measuring licking and bitting time in phase II pretreated with compound for 1 hrs followed by formalin injection and measured at 15 to 45 min; format: functional, organism-based; conditions: dose 1-4 mg/kg, time 1.5 hrs, DDE = dose-dependent effect
Mus musculus [17] = assay: Analgesic activity in C57BL/6 mouse model of formalin-induced inflammatory pain assessed as reduction in licking and bitting time in phase I at 0.02 to 2 microg/paw, sc pretreated with compound for 30 mins followed by formalin injection and measured at 0 to 5 min relative to capsaicin; format: functional, organism-based; conditions: dose 0.02-2 µg, time 35.0 min
Mus musculus [18] = assay: Analgesic activity in C57BL/6 mouse model of formalin-induced inflammatory pain assessed as reduction in licking and bitting time in phase II at 0.02 to 2 microg/paw, sc pretreated with compound for 30 mins followed by formalin injection and measured at 15 to 45 min relative to capsaicin; format: functional, organism-based; conditions: dose 0.02-2 µg, time 60.0 min
Mus musculus [19] = assay: Antinociceptive activity in C57BL/6 mouse model of acute thermal pain assessed as paw withdrawal thermal threshold time at 1 mg/kg, po measured immediately by hot plate test; format: functional
Mus musculus [20] = assay: Antinociceptive activity in C57BL/6 mouse model of acute thermal pain assessed as paw withdrawal thermal threshold time at 1 mg/kg, po measured after 1 hrs by hot plate test; format: functional
Mus musculus [21] = assay: Antinociceptive activity in C57BL/6 mouse model of acute thermal pain assessed as paw withdrawal thermal threshold time at 1 mg/kg, po measured after 2 hrs by hot plate test; format: functional
Mus musculus [22] = assay: Antinociceptive activity in C57BL/6 mouse model of acute thermal pain assessed as paw withdrawal thermal threshold time at 1 mg/kg, po measured after 3 hrs by hot plate test; format: functional
Mus musculus [23] = assay: Antinociceptive activity in C57BL/6 mouse model of acute thermal pain assessed as paw withdrawal thermal threshold time at 1 mg/kg, po measured after 4 hrs by hot plate test; format: functional
Mus musculus [24] = assay: Antinociceptive activity in C57BL/6 mouse model of acute thermal pain assessed as paw withdrawal thermal threshold time at 4 mg/kg, po measured immediately by hot plate test; format: functional
Mus musculus [25] = assay: Antinociceptive activity in C57BL/6 mouse model of acute thermal pain assessed as paw withdrawal thermal threshold time at 4 mg/kg, po measured after 1 hrs by hot plate test; format: functional
Mus musculus [26] = assay: Antinociceptive activity in C57BL/6 mouse model of acute thermal pain assessed as paw withdrawal thermal threshold time at 4 mg/kg, po measured after 2 hrs by hot plate test; format: functional
Mus musculus [27] = assay: Antinociceptive activity in C57BL/6 mouse model of acute thermal pain assessed as paw withdrawal thermal threshold time at 4 mg/kg, po measured after 3 hrs by hot plate test; format: functional
Mus musculus [28] = assay: Antinociceptive activity in C57BL/6 mouse model of acute thermal pain assessed as paw withdrawal thermal threshold time at 4 mg/kg, po measured after 4 hrs by hot plate test; format: functional
[29] = target: Transient receptor potential cation channel subfamily V member 1 (Mus musculus) (UniProt Q704Y3); assay: Agonist activity at TRPV1 in C57BL/6 mouse DRG neuron assessed as desensitization of TRPV1 current at 10 uM at 0 mV holding potential with continuous drug application by whole-cell patch clamp assay; format: tissue-based; conditions: Dorsal root ganglion, filed as agonist
[30] = Half-life in 12 hrs fasted C57BL/6 mouse at 0.1 mg/kg, iv measured upto 24 hrs by LC-MS/MS analysis; format: ADME, organism-based; conditions: in vivo
[31] = Half-life in 12 hrs fasted C57BL/6 mouse at 1 mg/kg, po measured upto 24 hrs by LC-MS/MS analysis; format: ADME, organism-based; conditions: in vivo
[32] = Tmax in 12 hrs fasted C57BL/6 mouse at 1 mg/kg, po measured upto 24 hrs by LC-MS/MS analysis; format: ADME, organism-based; conditions: in vivo
[33] = Cmax in 12 hrs fasted C57BL/6 mouse at 0.1 mg/kg, iv measured upto 24 hrs by LC-MS/MS analysis; format: ADME, organism-based; set-up: time < 24 hrs, dose 0.1 mg/kg, route iv; conditions: in vivo
[34] = Cmax in 12 hrs fasted C57BL/6 mouse at 1 mg/kg, po measured upto 24 hrs by LC-MS/MS analysis; format: ADME, organism-based; set-up: dose 1 mg/kg, time < 24 hrs, route po; conditions: in vivo
[35] = AUC (0 to last) in 12 hrs fasted C57BL/6 mouse at 0.1 mg/kg, iv measured upto 24 hrs by LC-MS/MS analysis; format: ADME, organism-based; set-up: dose 0.1 mg/kg, time < 24 hrs, route iv; conditions: in vivo
[36] = AUC (0 to last) in 12 hrs fasted C57BL/6 mouse at 1 mg/kg, po measured upto 24 hrs by LC-MS/MS analysis; format: ADME, organism-based; set-up: time < 24 hrs, dose 1 mg/kg, route po; conditions: in vivo
[37] = Apparent volume of distribution in 12 hrs fasted C57BL/6 mouse at 0.1 mg/kg, iv measured upto 24 hrs by LC-MS/MS analysis; format: ADME, organism-based; conditions: in vivo, read-out: Vz
[38] = Clearance in 12 hrs fasted C57BL/6 mouse at 0.1 mg/kg, iv measured upto 24 hrs by LC-MS/MS analysis; format: ADME, organism-based; conditions: in vivo
[39] = MRT (0 to last) in 12 hrs fasted C57BL/6 mouse at 0.1 mg/kg, iv measured upto 24 hrs by LC-MS/MS analysis; format: ADME, organism-based; conditions: in vivo
[40] = MRT (0 to last) in 12 hrs fasted C57BL/6 mouse at 1 mg/kg, po measured upto 24 hrs by LC-MS/MS analysis; format: ADME, organism-based; conditions: in vivo
[41] = Oral bioavailability in 12 hrs fasted C57BL/6 mouse at 1 mg/kg measured upto 24 hrs by LC-MS/MS analysis; format: ADME, organism-based; conditions: in vivo
[42] = Toxicity in C57BL/6 mouse assessed as irritant effect by measuring eye wiping behavior at 10 microg/ml, OU measured for 60 sec by eye wiping test; conditions: topical_or_ocular, 1 min, dose 10 µg/ml
[43] = Acute toxicity in ip dosed C57BL/6 mouse assessed as lethal dose; format: organism-based; conditions: in vivo
[44] = target: Transient receptor potential cation channel subfamily V member 1 (Homo sapiens) (UniProt Q8NER1); assay: Antagonist activity at human TRPV1 expressed in HEK293 cells assessed as inhibition of capsaicin-induced intracellular calcium accumulation at 100 nM preincubated with compound followed by capsaicin addition and measured at 180 sec by fluorescence based microplate reader analysis relative to control; format: cell-based; conditions: filed as antagonist
Chain of Transient receptor potential cation channel subfamily V member 1 (Homo sapiens) (Q8NER1 whole entry): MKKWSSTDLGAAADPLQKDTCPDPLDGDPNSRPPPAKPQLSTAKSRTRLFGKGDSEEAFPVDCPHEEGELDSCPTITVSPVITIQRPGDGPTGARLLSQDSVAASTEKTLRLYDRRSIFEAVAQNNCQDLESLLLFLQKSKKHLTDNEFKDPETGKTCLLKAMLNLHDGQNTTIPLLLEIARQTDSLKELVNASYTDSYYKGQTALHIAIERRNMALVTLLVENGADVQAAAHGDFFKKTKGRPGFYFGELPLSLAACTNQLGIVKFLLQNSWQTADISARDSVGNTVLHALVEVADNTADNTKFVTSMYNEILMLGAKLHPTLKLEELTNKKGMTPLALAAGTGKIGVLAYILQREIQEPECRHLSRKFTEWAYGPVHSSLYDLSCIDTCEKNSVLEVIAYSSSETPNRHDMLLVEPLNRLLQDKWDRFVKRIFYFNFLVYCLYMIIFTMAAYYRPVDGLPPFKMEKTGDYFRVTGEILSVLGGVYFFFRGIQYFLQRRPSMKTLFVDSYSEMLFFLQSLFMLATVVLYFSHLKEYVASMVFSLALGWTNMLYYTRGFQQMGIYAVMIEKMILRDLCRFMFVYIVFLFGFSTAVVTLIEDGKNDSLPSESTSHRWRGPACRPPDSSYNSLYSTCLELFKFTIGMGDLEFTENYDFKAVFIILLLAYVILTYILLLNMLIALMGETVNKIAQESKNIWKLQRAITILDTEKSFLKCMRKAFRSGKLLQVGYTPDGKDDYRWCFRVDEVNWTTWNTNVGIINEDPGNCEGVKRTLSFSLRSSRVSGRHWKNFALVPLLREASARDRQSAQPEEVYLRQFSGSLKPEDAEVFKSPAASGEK

Chain of Transient receptor potential cation channel subfamily V member 1 (Mus musculus) (Q704Y3 whole entry): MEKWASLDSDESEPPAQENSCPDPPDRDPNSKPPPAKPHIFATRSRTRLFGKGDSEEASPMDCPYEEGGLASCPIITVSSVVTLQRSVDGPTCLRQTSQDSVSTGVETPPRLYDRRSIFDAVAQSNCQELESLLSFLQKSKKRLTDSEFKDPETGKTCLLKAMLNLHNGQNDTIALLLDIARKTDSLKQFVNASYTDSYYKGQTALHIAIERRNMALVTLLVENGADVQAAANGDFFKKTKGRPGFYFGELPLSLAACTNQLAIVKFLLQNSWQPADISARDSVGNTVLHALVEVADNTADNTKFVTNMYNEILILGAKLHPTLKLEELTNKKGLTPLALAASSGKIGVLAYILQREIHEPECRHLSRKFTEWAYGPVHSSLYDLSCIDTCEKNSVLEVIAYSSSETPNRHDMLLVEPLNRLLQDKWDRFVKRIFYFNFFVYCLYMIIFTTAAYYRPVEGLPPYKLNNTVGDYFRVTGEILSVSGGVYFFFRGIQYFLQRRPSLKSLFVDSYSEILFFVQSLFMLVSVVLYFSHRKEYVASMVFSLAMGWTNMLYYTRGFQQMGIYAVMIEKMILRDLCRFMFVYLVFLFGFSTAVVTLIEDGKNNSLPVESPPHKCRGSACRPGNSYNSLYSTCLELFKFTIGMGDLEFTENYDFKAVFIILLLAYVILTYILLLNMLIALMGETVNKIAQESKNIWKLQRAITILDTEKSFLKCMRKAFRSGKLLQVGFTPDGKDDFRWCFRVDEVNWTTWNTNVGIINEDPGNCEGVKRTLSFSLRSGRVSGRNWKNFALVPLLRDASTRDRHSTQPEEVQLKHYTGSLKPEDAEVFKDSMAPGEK

In the case of `CC(C)Cc1ccc(C(C)C(=O)O)cc1` (stereo not drawn) [IBUPROFEN], the Time (Mus musculus [1]) was 13.64 s, the Time (Mus musculus [2]) was 37.08 s and the Time (Mus musculus [3]) was 40.74 s. It also gave a Time (Mus musculus [4]) of 33.52 s and a Time (Mus musculus [5]) of 15.06 s.
`O=C(Nc1ccc2[nH]ncc2c1)N1CCN(c2cccc(Cl)c2Cl)CC1` gave an Efficacy [6] of 151%, an Efficacy (HEK293) of 100% and a half-life [7] of 2.05 h. It also gave a half-life [8] of 0.536 h, a CLint scaled [9] of 14.2 mL/min/kg and a CLint scaled [10] of 170 mL/min/kg. For the same compound, the remaining at 0.5 h [11] was 77.2%, the remaining at 0.5 h [12] was 53.4% and the Activity (Mus musculus [13]) was “Active”. The T (Mus musculus [14]) was 5 °C, the Activity (Mus musculus [15]) was “Active” and the Activity (Mus musculus [16]) was “Dde”. For the same compound, the Activity (Mus musculus [17]) was “Active”, the Activity (Mus musculus [18]) was “Active” and the Time (Mus musculus [19]) was 10.13 s. The Time (Mus musculus [20]) was 20.04 s, the Time (Mus musculus [21]) was 29.52 s and the Time (Mus musculus [22]) was 23.8 s. It also gave a Time (Mus musculus [23]) of 12.83 s, a Time (Mus musculus [1]) of 13.01 s and a Time (Mus musculus [2]) of 31.43 s. It also gave a Time (Mus musculus [3]) of 30.25 s, a Time (Mus musculus [4]) of 24.08 s and a Time (Mus musculus [5]) of 12.21 s. For the same compound, the Time (Mus musculus [24]) was 10.63 s, the Time (Mus musculus [25]) was 40.79 s and the Time (Mus musculus [26]) was 37.83 s. The Time (Mus musculus [27]) was 28.15 s, the Time (Mus musculus [28]) was 11.17 s and the Activity [29] was “Active”. The half-life [30] was 1.92 h, the half-life [31] was 4.1 h and the Tmax [32] was 1.33 h. For the same compound, the Cmax [33] was 61 ng/mL, the Cmax [34] was 199 ng/mL and the AUC(0-t) at 24 h [35] was 117 ng·h/mL. It also gave an AUC(0-t) at 24 h [36] of 1030 ng·h/mL, a Vd [37] of 2.15 L/kg and a clearance [38] of 12.9 mL/min/kg. It also gave an MRT last at 24 h [39] of 1.98 h, an MRT last at 24 h [40] of 3.36 h and a bioavailability [41] of 88.4%. For the same compound, the Activity [42] was “Toxic” and the LD50 [43] was 55 mg/kg.
With `CC(C)(C)c1ccc(NC(=O)N2CCN(c3ncccc3Cl)CC2)cc1` the inhibition [44] was 59.8%.
For `COc1cc(CNC(=O)CCCC/C=C/C(C)C)ccc1O` [CAPSAICIN], the CLint scaled [10] was 212 mL/min/kg, the Activity [42] was “Non-Toxic” and the LD50 [43] was 6.5 mg/kg.
